≈ marks a conversion by molar mass, not a printed value. Where two headings read alike, the source gives them in different places. One block for each molecule: values may come before it. Starred links: 1 amine or outer side, 2 acyl side, 3 side chain; linkers in the order of their positions; H or OH if unused. Positions of bridges follow the written chain, without caps; N, C: chain ends. Non-standard residues stand in square brackets, D forms with d. Residues, ends and D or L forms follow the SMILES beside them. X2 = CCCCCCC[C@H](CC(=O)[*:1])O[*:2]; Val(3-OH) = CC(C)(O)[C@H](N)C(=O)O; X1 = C/C=C(/N[*:1])C(=O)[*:2]; Dab = NCC[C@H](N)C(=O)O; Dap = NC[C@H](N)C(=O)O
Assays:
A. baumannii [1] = type: cell-based, Acinetobacter baumannii
From the text: (§1) 2015. M7-A10. Methods for dilution antimicrobial susceptibility tests for bacteria that grow aerobically, 10th ed. Approved standard. CLSI, Wayne, Pa.).
(§2) A) In the broth micro-dilution method, the test media were either AM3 Broth (BD Difco Ltd) mixed with phosphate buffered saline (PBS, Amresco LLC, Solon, USA) in 1:4 ratio (E. colt A. baumannii, Enterobacter cloacae, Klebsiella pneumonia and P. aeruginosa), AM3 Broth mixed with PBS in 1:1 ratio (S. aureus) or Malt Extract (ME; 15 g Malt Extract Dico Ltd. in 1000 mL deionized H2O; Aspergillus fumigatus). Prior to MIC-tests, the bacterial cell concentration/fungal spore concentration was adjusted to between 1 and 5×10^5 cells/spores per mL. […] Afterwards, suspensions of pathogen cells in the appropriate medium were dispensed to the wells of microtiter plates and the growth of pathogens were monitored after 16 to 20 h of incubation at 37° C. in the dark. Positive control comprised respective pathogen cells suspended in untreated sterile appropriate media without addition of compounds(s) and negative control comprised the medium only. The MIC was defined as the lowest concentration of each compound with no visible growth of pathogen. All MIC tests were performed in duplicate and/or triplicate and repeated at least twice.

As. fumigatus = type: cell-based, Aspergillus fumigatus
From the text: as §1, §2

E. cloacae = type: cell-based, Enterobacter cloacae
From the text: as §1, §2

E. coli [2] = type: cell-based, Escherichia coli
From the text: as §1, §2

K. pneumoniae [3] = type: cell-based, Klebsiella pneumonia
From the text: as §1, §2

P. aeruginosa [4] = type: cell-based, Pseudomonas aeruginosa
From the text: as §1, §2

S. aureus [5] = type: cell-based, Staphylococcus aureus
From the text: as §1, §2

A. baumannii [6] = type: cell-based, Acinetobacter baumannii; remark: listed apart in the source
From the text: as §1

E. coli [7] = type: cell-based, Escherichia coli; settings: E. coli EN003, D22 (lps mutant, hypersensitive), method B
From the text: as §1

K. pneumoniae [8] = type: cell-based, Klebsiella pneumonia; settings: K. pneumoniae EN011, 1161486a (efflux-defective), method B
From the text: as §1

P. aeruginosa [9] = type: cell-based, Pseudomonas aeruginosa; settings: P. aeruginosa EN005, PAO750 (efflux-defective), method B
From the text: as §1

S. aureus [10] = type: cell-based, Staphylococcus aureus; remark: listed apart in the source
From the text: as §1

[11] = Method: (§3) IC50, haemolysis rate and frequency of resistance (FoR, Table 4) was determined using standard protocols by different CROs.
HepG2 = system: HepG2
Method: as §3

[12] = system: carbapenem resistant strains of E. coil, P. aeruginosa and A. baumannii; type: cell-based
From the text: as §1

[13] = method A, only lower limit of concentration range shown ("16" means "16-32")

Molecule: C/C=C1/NC(=O)[C@H](CCN)NC(=O)[C@H](CC(C)C)NC(=O)[C@H](CN)NC(=O)C[C@@H](CCCCCCC)OC(=O)[C@H](CC(=O)O)NC(=O)[C@H](C(C)(C)O)NC(=O)[C@@H](Cc2ccccc2)NC(=O)[C@H](CN)NC(=O)[C@H]([C@@H](C)O)NC1=O [U747, cyclo-((R)-3-hydroxydecanoyl-L-DAPA-L-Leu-L-DABA-(E)-ABA-L-Thr-L-DAPA-D-Phe-L-OHVal-L-Asp)] ([Dap]L[Dab][X1]T[Dap][dF][Val(3-OH)]D; linker N-C via X2)
MIC (A. baumannii [1]): 1 to 2 µg/mL
MIC A. baumannii LMG1041T (A. baumannii [1]): 1 µg/mL (≈ 0.895 µM)
MIC (As. fumigatus): 16 to 32 µg/mL
MIC (E. cloacae): 2 to 4 µg/mL
MIC E. cloacae LMG2783T (E. cloacae): 2 µg/mL (≈ 1.79 µM)
MIC (E. coli [2]): 2 to 4 µg/mL
MIC E. coli LMG15862 (E. coli [2]): 2 µg/mL (≈ 1.79 µM)
MIC (K. pneumoniae [3]): 2 to 4 µg/mL
MIC K. pneumonia LMG20218 (K. pneumoniae [3]): 2 µg/mL (≈ 1.79 µM)
MIC (P. aeruginosa [4]): 8 to 16 µg/mL
MIC P. aeruginosa LMG6395 (P. aeruginosa [4]): 8 µg/mL (≈ 7.16 µM)
MIC (S. aureus [5]): >32 µg/mL
MIC S. aureus LMG15975 (S. aureus [5]): >32 µg/mL
MIC (A. baumannii [6]): 1 to 2 µg/mL
MIC (A. baumannii [6]; A. baumanii EN007, WT, method B): 8 µg/mL (≈ 7.16 µM)
MIC (A. baumannii [6]; A. baumanii EN016, BM4454 8, method B): 8 µg/mL (≈ 7.16 µM)
MIC (A. baumannii [6]; A. baumanii EN017, BM4652 (efflux-defective), method B): 8 µg/mL (≈ 7.16 µM)
MIC (E. coli [7]): 4 µg/mL (≈ 3.58 µM)
MIC (K. pneumoniae [8]): 8 µg/mL (≈ 7.16 µM)
MIC (P. aeruginosa [9]): 32 µg/mL (≈ 28.6 µM)
MIC (S. aureus [10]): 64 µg/mL (≈ 57.3 µM)
Haemolysis rate ([11]; 100 μM): 0.6%
haemolysis rates ([11]; in words): acceptable
IC50 (HepG2) (HepG2): 50 µg/mL (≈ 44.8 µM)
toxicity (IC50) against human cell lines (HepG2): low toxicity
MICs against carbapenem resistant strains, highest [12]: 2 to 4 µg/mL
MICs against carbapenem resistant strains, lowest [12]: 0.5 to 1 µg/mL

MIC A. baumannii LMG1041T (A. baumannii [1]; [13]): 2 µg/mL
MIC E. cloacae LMG2783T (E. cloacae; [13]): 4 µg/mL
MIC E. coli LMG15862 (E. coli [2]; [13]): 4 µg/mL
MIC K. pneumonia LMG20218 (K. pneumoniae [3]; [13]): 4 µg/mL
MIC P. aeruginosa LMG6395 (P. aeruginosa [4]; [13]): 8 µg/mL
MIC S. aureus LMG15975 (S. aureus [5]; [13]): 8 µg/mL
IC50 (HepG2) (HepG2; HepG2, determined by a CRO): 20 µg/mL
Molecule: Table 2 cyclic lipodepsipeptide: R C8H17; DAPA-Leu-DABA-ABA-Thr-DAPA-Phe-OHVal-Asp [U754]

MIC A. baumannii LMG1041T (A. baumannii [1]; [13]): 8 µg/mL
MIC E. cloacae LMG2783T (E. cloacae; [13]): 8 µg/mL
MIC E. coli LMG15862 (E. coli [2]; [13]): 8 µg/mL
MIC K. pneumonia LMG20218 (K. pneumoniae [3]; [13]): >32 µg/mL
MIC P. aeruginosa LMG6395 (P. aeruginosa [4]; [13]): >32 µg/mL
MIC S. aureus LMG15975 (S. aureus [5]; [13]): 16 µg/mL
IC50 (HepG2) (HepG2; HepG2, determined by a CRO): 15 µg/mL
Molecule: Table 2 cyclic lipodepsipeptide: R C10H21; Asn-Leu-DABA-ABA-Thr-DAPA-Phe-OHVal-Asp [U810]
